Consider 13 compounds from ChEMBL document CHEMBL5726069, “1-(3-aminopropyl) substituted cyclic amine compounds, preparation method therefor, and pharmaceutical compositions and uses thereof” (2019).

C-C chemokine receptor type 5, sequence (P51681 whole entry): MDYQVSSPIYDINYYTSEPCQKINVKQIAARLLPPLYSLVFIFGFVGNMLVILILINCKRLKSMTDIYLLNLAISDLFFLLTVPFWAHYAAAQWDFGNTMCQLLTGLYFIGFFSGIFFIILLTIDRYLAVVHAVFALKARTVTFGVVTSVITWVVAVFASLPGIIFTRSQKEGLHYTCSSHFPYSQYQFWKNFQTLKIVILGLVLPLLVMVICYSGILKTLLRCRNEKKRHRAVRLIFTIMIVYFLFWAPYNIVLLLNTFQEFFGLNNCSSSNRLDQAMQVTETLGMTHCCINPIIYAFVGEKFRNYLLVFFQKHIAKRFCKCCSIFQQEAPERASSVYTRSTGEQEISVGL

The experiment has as its target C-C chemokine receptor type 5 (Homo sapiens, UniProt P51681). The experiment is described as follows: Calcium Flux Inhibition Experiment: 1. HEK293 cells which can stably express CCR5 were inoculated in a 96-well plate and incubated overnight.2. The medium in each well into which cells were innoculated was removed and 40 μl/well of freshly prepared dye was added. The plate was placed in a 37° C. incubator and incubated for 40 minutes at constant temperature.3. The medicament to be determined was diluted with calcium buffer to eight concentration gradients, which is 1×10−4 M, 1×10−5 M, 1×10−6 M, 1×10−7 M, 1×10−8 M, 1×10−9 M, 1×10−10 M, and 1×10−11 M, respectively, and homogeneously mixed.4. The dye was removed. Freshly prepared calcium buffer was used to wash for one time, 50 μl of calcium buffer was added.5. FlexStation II was used for detection. 25 μl of calcium buffer containing the medicament to be determined was added automatically from the 15th second. The fluorescence value at 525 nm was read ultimately. The format is cell-based.
What is called IC50 is the point on the concentration scale where inhibition reaches its midpoint. On to `Cc1nnc(C(C)C)n1C1CC2CCC(C1)N2CC[C@H](NC(=O)C1CCC(F)(F)CC1)c1nccs1` (stereo partly drawn), for which the IC50 was 10.3 nM. To `CC(=O)Nc1ccc([C@H](CCN2C3CCC2CC(n2c(C)nnc2C(C)C)C3)NC(=O)C2CCC(F)(F)CC2)s1` (stereo partly drawn) belongs 8.23 nM; to `CCc1ccc([C@H](CCN2C3CCC2CC(n2c(C)nnc2C(C)C)C3)NC(=O)C2CCC(F)(F)CC2)s1` (stereo partly drawn), 4.63 nM. To `Cc1nnc(C(C)C)n1C1CC2CCC(C1)N2CC[C@H](NC(=O)C1CCC(F)(F)CC1)c1csc2ccccc12` (stereo partly drawn) belongs 11.4 nM; to `Cc1nnc(C(C)C)n1C1CC2CCC(C1)N2CC[C@H](NC(=O)C1CCC(F)(F)CC1)c1ccc(C#N)s1` (stereo partly drawn), 9.45 nM. As for `Cc1nnc(C(C)C)n1C1CC2CCC(C1)N2CC[C@H](NC(=O)C1CCC(F)(F)CC1)c1ccc(Cl)s1` (stereo partly drawn), the IC50 worked out at 10.4 nM. Regarding `Cc1nnc(C(C)C)n1C1CC2CCC(C1)N2CCC(NC(=O)C1CCC(F)(F)CC1)c1cccs1` (stereo not drawn), the IC50 is 1.95 nM. To `Cc1ccc([C@H](CCN2C3CCC2CC(n2c(C)nnc2C(C)C)C3)NC(=O)C2CCC(F)(F)CC2)s1` (stereo partly drawn) belongs 7.28 nM; to `Cc1ccc([C@H](CCN2C3CCC2CC(n2c(C)nnc2C(C)C)C3)NC(=O)CC#N)s1` (stereo partly drawn), 8.29 nM; to `Cc1nnc(C(C)C)n1C1CC2CCC(C1)N2CC[C@H](NC(=O)C1CCCCC1)c1ccc(C(=O)N(C)C)s1` (stereo partly drawn), 1.64 nM.

`Cc1nnc(C(C)C)n1C1CC2CCC(C1)N2CC[C@H](NC(=O)C1CCC(F)(F)CC1)c1ccc(F)s1` (stereo partly drawn): the IC50 stood at 9.33 nM. For `CNC(=O)c1ccc([C@H](CCN2C3CCC2CC(n2c(C)nnc2C(C)C)C3)NC(=O)C2CCC(F)(F)CC2)s1` (stereo partly drawn), the IC50 stood at 13.7 nM. `CC(=O)Oc1ccc([C@H](CCN2C3CCC2CC(n2c(C)nnc2C(C)C)C3)NC(=O)C2CCCCC2)s1` (stereo partly drawn): the concentration for half-maximal inhibition (IC50) came out at 1.38 nM.
